The subject of the assay is zymosan induced neutrophil migration. Description: Air pouch model of inflammation, zymosan induced neutrophil migration. In kind it is in vivo, mice. The method, then: Male outbred Swiss albino mice (18-20 g body weight) were purchased from Bantin and Kingman (T.O. strain; Hull, Humberside) and maintained on a standard chow pellet diet with tap water ad libitum and a 12:00 h light/dark cycle. All animals were housed for 3 days prior to experimentation to allow body weight to reach 20-22 g. On the day of experiment mice ranged from 24-26 g.
Air-pouches were formed on the back of mice by air injection (2.5 ml s.c.) on day 0 and day 3 (Perretti and Flower, 1993).
Zymosan A was allowed to defrost at room temperature for 30 min prior to being added to sterile PBS at a concentration of 2 mg/ml forming a homogenous suspension.
At time 0, mice received either 0.5 ml of zymosan (1 mg) (group A, B, C) injected locally into the air-pouch. Group D and E were left untreated at this time-point. At 4 h post-zymosan the animals were placed in CO2. Air-pouches were then washed with 2 ml of PBS containing 3 mM EDTA, and livers were recovered and snap frozen for later analysis.
The number of migrated leukocytes (≧90% polymorphonuclear leukocytes, PMN) was determined in the lavage fluid from each air-pouch, by taking an aliquot (100 μl) of the lavage fluid and diluting 1:10 in Turk's solution (0.01% crystal violet in 3% acetic acid). The samples were then vortexed and 10 μl of the stained cell solution were placed in a Neubauer haematocymometer and neutrophils numbers counted using a light microscope (Olympus B061).
Neutrophil numbers were compared between groups using ANOVA plus the Bonferroni test. TAT levels were compared using a t-test.

Consider `CCCNC(=O)C1(O)C(C)CC2C3CCC4=CC(=O)C=CC4(C)C3(F)C(O)CC21C` (centres unmarked) [Compound G], for which the “Neutrophils (10^6 per mouse)” value (3 μg i.p. at -1 h, Zymosan 1 mg into air-pouch, 4 h time-point, mean ± S.E. of 8 mice) was 6.33 ± 0.79 * 10^6 per mouse. In addition, the “reduction of neutrophil accumulation” value (3 μg i.p., zymosan air pouch, 4 h) is on record as around 30%.

Values taken from patent US7763596B2, “Selective glucocorticoid receptor agonists” (The University of Manchester, priority 2000, dated 2010).
